SMILES strings stand for the structures. Read-outs that look alike come from different tables or passages of the source.

Data on 13 compounds can be found in article PMC6804212, “Chain Substituted Cannabilactones with Selectivity for the CB2 Cannabinoid Receptor” (Molecules, 2019).

The target in series [1] is T1, hCB2 receptor (Homo sapiens, UniProt P34972). The series is described as follows: cAMP assay: decrease in forskolin-stimulated cAMP in HEK293 cells stably expressing hCB2. It is filed as cell-based. More on the design: expressed in transfected cells. The following applies: for classification at hCB2: forskolin-stimulated cAMP assay; for E(max): maximum inhibition of forskolin stimulated cAMP levels, as percentage of CP-55,940 response at 500 nM. Background: cAMP levels reflect the balance of adenylyl cyclase and phosphodiesterase activity.
T1 sequence (P34972 whole entry): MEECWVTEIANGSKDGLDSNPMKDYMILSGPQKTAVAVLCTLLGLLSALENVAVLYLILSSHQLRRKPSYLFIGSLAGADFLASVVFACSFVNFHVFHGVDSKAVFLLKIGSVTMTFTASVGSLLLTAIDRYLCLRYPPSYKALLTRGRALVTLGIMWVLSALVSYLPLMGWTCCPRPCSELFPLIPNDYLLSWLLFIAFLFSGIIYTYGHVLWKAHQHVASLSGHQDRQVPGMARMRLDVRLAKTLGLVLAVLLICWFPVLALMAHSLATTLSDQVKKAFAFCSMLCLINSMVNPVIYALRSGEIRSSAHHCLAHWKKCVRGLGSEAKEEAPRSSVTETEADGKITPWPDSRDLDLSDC
Experimental: HEK293 cells stably expressing hCB2 receptors were used for the studies. The cAMP assay was carried out using PerkinElmer’s Lance ultra cAMP kit following the protocol of the manufacturer. Briefly, the assays were carried out in 384-well plates using 1000–1500 cells/well. The cells were harvested with non-enzymatic cell dissociation reagent Versene, washed once with HBSS and resuspended in the stimulation buffer. The various concentrations of the test compound (5 μL) in forskolin (2 μM final concentration) containing stimulation buffer were added to the plate followed by the cell suspension (5 μL). Cells were stimulated for 30 min at room temperature. Eu-cAMP tracer working solution (5 μL) and Ulight-anti-cAMP working solution (5 μL) were then added to the plate and incubated at room temperature for 60 min. The data were collected on a Perkin-Elmer Envision instrument. The EC50 values were determined by non-linear regression analysis using GraphPad Prism software (GraphPad Software, Inc., San Diego, CA, USA).

The target in another series is T2, mouse CB2 receptor (Mus musculus, UniProt P47936).
T2 construct: expressed in transfected cells; host or cells: HEK293
T2 sequence (P47936 whole entry): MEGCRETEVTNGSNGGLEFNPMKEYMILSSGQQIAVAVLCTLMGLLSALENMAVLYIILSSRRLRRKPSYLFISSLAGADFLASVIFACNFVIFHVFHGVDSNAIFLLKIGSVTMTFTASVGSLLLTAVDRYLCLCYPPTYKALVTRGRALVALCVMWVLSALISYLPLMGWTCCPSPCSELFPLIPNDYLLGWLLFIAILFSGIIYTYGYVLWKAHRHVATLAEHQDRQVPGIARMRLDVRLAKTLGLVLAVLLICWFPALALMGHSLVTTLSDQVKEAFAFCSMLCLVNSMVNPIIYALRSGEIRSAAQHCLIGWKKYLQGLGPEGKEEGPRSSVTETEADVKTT
Kind of series: Radioligand competition binding, [3H]CP-55,940, membranes from HEK293 cells expressing mouse CB2. The following applies: for selectivity for mCB2 over rCB1: from Ki values; for rCB1/mCB2: ratio of Ki values, rCB1 over mCB2. The protocol: (§1) Inhibition constant values (Ki) from the respective competition binding curves are listed in Table 1 in which our first generation cannabilactone analog AM1714 is included for comparison. The current data of AM1714 for mCB2 are slightly different when compared to those we published earlier. This is because the compound was first assayed in a different mCB2 receptor preparation, e.g., mouse spleen membrane.
(§2) Results from the competition assays were analyzed using nonlinear regression to determine the IC50 values for the ligand [59]; Ki values were calculated from the IC50 (Prism by GraphPad Software, Inc.). Each experiment was performed in triplicate and Ki values determined from three independent experiments and are expressed as the mean of the three values.

The target of series [2] is T1, hCB2 receptor. The series is described as follows: Radioligand competition binding, [3H]CP-55,940, membranes from HEK293 cells expressing human CB2. More on the design: expressed in transfected cells; host or cells: HEK293. The following applies: for greater affinity for mCB2 than for hCB2: from Ki values; for hCB2/mCB2 / rCB1/hCB2: ratio of Ki values; for hCB2/mCB2: hCB2 over mCB2; for rCB1/hCB2: rCB1 over hCB2; for Ki: read-out: Ki hCB2. The protocol:
Indeed, in our original work on the cannabilactone class of compounds, we have identified species-specific variation in CB2 affinity. For this reason, the key compounds were also assayed using membranes from HEK293 cells expressing human CB2 (hCB2).
as §2
For orientation: In a radioligand displacement assay an active substance lowers the binding of a labelled ligand.

In another series the target is T3, rat CB1 receptor (Rattus norvegicus, UniProt P20272).
T3 construct: membrane preparations from rat brain; from tissue; host or cells: rat brain membranes
T3 sequence (P20272 whole entry): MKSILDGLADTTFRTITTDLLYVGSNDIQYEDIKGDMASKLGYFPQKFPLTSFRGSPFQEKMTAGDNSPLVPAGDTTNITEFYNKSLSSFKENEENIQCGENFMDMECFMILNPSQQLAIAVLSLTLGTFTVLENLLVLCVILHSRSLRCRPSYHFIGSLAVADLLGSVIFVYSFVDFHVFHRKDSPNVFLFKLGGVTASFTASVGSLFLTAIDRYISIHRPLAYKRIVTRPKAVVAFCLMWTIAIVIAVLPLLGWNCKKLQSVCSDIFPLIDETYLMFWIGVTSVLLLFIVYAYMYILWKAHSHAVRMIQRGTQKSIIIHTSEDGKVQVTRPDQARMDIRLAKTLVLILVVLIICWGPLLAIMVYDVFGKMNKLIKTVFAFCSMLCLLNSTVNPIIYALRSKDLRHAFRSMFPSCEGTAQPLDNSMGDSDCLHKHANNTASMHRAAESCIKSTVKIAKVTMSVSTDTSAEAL
The series is described as follows: Radioligand competition binding, [3H]CP-55,940, rat brain membranes. The protocol: as §1, §2

Turning to `CCCCCCC(C)(C)c1cc(O)c2c(c1)oc(=O)c1ccc(O)cc12` [Compound 1b, reference compound], at hCB2 receptor [1], the 50% effective concentration (EC50) (commonly the concentration that produces a half-maximal response) was 36.9 ± 6.8 nM, the “classification at hCB2” value is reported as “agonist” and the “E(max)” value is 77%. At mouse CB2 receptor, the “selectivity for mCB2 over rCB1” value is given as 21- to 32 fold and the rCB1/mCB2 is 21.3. Further, at mouse CB2 receptor (read-out: Ki mCB2), the inhibition constant Ki (commonly the dissociation constant of the complex between target and ligand, obtained from inhibition or displacement) came out at 4.7 ± 1.8 nM. Further, at hCB2 receptor [2], the “greater affinity for mCB2 than for hCB2” value stood at 18 fold, the hCB2/mCB2 is recorded as 17.7, the rCB1/hCB2 was determined as 1.2 and the Ki was 83.6 ± 23.2 nM. In addition, at rat CB1 receptor, affinity was put at a Ki of 100 ± 24 nM.

Consider `CCCCCCC1(c2cc(O)c(-c3cc(O)ccc3C(=O)N(C(C)C)C(C)C)c(O)c2)CCCC1` [Compound 23d, 4′-(1-Hexyl-cyclopentyl)-2′,5,6′-trihydroxy-N,N-diisopropyl-[1,1′-biphenyl]-2-carboxamide], for which the melting point (usually the temperature, or range, at which the solid turns liquid) was 185 to 187 °C. Further, the “response in hCB2 cAMP assay” value on hCB2 receptor [1] (concentrations up to 2 μM) is “failed to show any responses”. In addition, at mouse CB2 receptor, the inhibition constant (Ki) is 5.7 ± 1.5 nM, the “selectivity for mCB2 over rCB1” value came out at 60 fold and the rCB1/mCB2 was found to be 59.8. Also, at rat CB1 receptor (read-out: Ki rCB1), the inhibitory constant (Ki) is 341 ± 100 nM.

With `CC(C)N(C(=O)c1ccc(O)cc1-c1c(O)cc(C2(CCCCBr)CCCC2)cc1O)C(C)C` [Compound 23a, 4′-[1-(4-Bromobutyl)cyclopentyl]-2′,5,6′-trihydroxy-N,N-diisopropyl-[1,1′-biphenyl]-2-carboxamide], the melting point is 183 to 185 °C. Also, on mouse CB2 receptor, the Ki is 22.4 ± 4.5 nM and the rCB1/mCB2 turned out to be 31.3. The inhibitory constant (Ki) at rat CB1 receptor (read-out: Ki rCB1) was determined as 702 ± 220 nM.

As for `N#CCCCCC1(c2cc(O)c3c(c2)oc(=O)c2ccc(O)cc23)CCCC1` [Compound 3e, 3-[1-(4-Cyanobutyl)cyclopentyl]-1,9-dihydroxy-6H-dibenzo[b,d]pyran-6-one], the melting point was 138 to 140 °C. For the same compound, on mouse CB2 receptor, the Ki amounted to 11.8 ± 4.1 nM and the rCB1/mCB2 is recorded as 25.7. For the same compound, the Ki at rat CB1 receptor (read-out: Ki rCB1) came out at 304 ± 73 nM.

In turn, `CC(C)N(C(=O)c1ccc(O)cc1-c1c(O)cc(C2(CCCCCBr)CCCC2)cc1O)C(C)C` [Compound 23b, 4′-[1-(5-Bromopentyl)cyclopentyl]-2′,5,6′-trihydroxy-N,N-diisopropyl-[1,1′-biphenyl]-2-carboxamide] came in with a melting point of 190 to 192 °C. Besides, on mouse CB2 receptor, the inhibition constant (Ki) was determined as 17.4 ± 4.8 nM and the rCB1/mCB2 is recorded as 42.8. Besides, the inhibitory constant (Ki) at rat CB1 receptor (read-out: Ki rCB1) was determined as 745 ± 215 nM.

Take `O=c1oc2cc(C3(CCCCCBr)CCCC3)cc(O)c2c2cc(O)ccc12` [Compound 3b, 3-[1-(5-Bromopentyl)cyclopentyl]-1,9-dihydroxy-6H-dibenzo[b,d]pyran-6-one]: the inhibition constant (Ki) on mouse CB2 receptor turned out to be 16.3 ± 5.2 nM; at rat CB1 receptor (read-out: Ki rCB1) it was 370 ± 130 nM.

Take `CCCCCCC1(c2cc(O)c3c(c2)oc(=O)c2ccc(O)cc23)CCCC1` [Compound 3d, 3-(1-Hexyl-cyclopentyl]-1,9-dihydroxy-6H-dibenzo[b,d]pyran-6-one]: the melting point lay in the range of 153 to 155 °C. At mouse CB2 receptor, the “selectivity for mCB2 over rCB1” value is reported as 21- to 32 fold and the rCB1/mCB2 amounted to 31.7. In addition, the Ki on mouse CB2 receptor (read-out: Ki mCB2) came out at 8.4 ± 2.5 nM. Also, at hCB2 receptor [2], the “greater affinity for mCB2 than for hCB2” value is reported as 3 fold, the hCB2/mCB2 is reported as 3.3, the rCB1/hCB2 came to 9.5 and the Ki turned out to be 28 ± 9.7 nM. The compound further yielded an inhibitory constant (Ki) on rat CB1 receptor of 266 ± 58 nM.

Take `O=c1oc2cc(C3(CCCBr)CCCC3)cc(O)c2c2cc(O)ccc12` [Compound 3c, 3-[1-(3-Bromopropyl)cyclopentyl]-1,9-dihydroxy-6H-dibenzo[b,d]pyran-6-one]: the inhibition constant (Ki) was 24.3 ± 3.9 nM at mouse CB2 receptor and 405 ± 122 nM on rat CB1 receptor (read-out: Ki rCB1).

`N#CCCCC1(c2cc(O)c3c(c2)oc(=O)c2ccc(O)cc23)CCCC1` [Compound 3g, 3-[1-(3-Cyanopropyl)cyclopentyl]-1,9-dihydroxy-6H-dibenzo[b,d]pyran-6-one] had a melting point of 118 to 120 °C. Besides, at mouse CB2 receptor, the affinity, expressed as Ki, was 17.9 ± 5.8 nM and the rCB1/mCB2 amounted to 16.2. In addition, the inhibition constant (Ki) on rat CB1 receptor (read-out: Ki rCB1) worked out at 290 ± 64 nM.

In turn, `CC(C)N(C(=O)c1ccc(O)cc1-c1c(O)cc(C2(CCCBr)CCCC2)cc1O)C(C)C` [Compound 23c, 4′-[1-(3-Bromopropyl)cyclopentyl]-2′,5,6′-trihydroxy-N,N-diisopropyl-[1,1′-biphenyl]-2-carboxamide] gave a melting point of 178 to 180 °C. Besides, on mouse CB2 receptor, the Ki was found to be 10.5 ± 3.5 nM and the rCB1/mCB2 was 21.8. In addition, the Ki at rat CB1 receptor (read-out: Ki rCB1) worked out at 229 ± 70 nM.

In turn, `O=c1oc2cc(C3(CCCCBr)CCCC3)cc(O)c2c2cc(O)ccc12` [Compound 3a, 3-[1-(4-Bromobutyl)cyclopentyl]-1,9-dihydroxy-6H-dibenzo[b,d]pyran-6-one] returned a melting point of 96 to 98 °C. At mouse CB2 receptor, the Ki was determined as 20.8 ± 5.9 nM and the rCB1/mCB2 is listed as 18.8. Besides, the inhibition constant (Ki) at rat CB1 receptor (read-out: Ki rCB1) was determined as 390 ± 132 nM.

Consider `CCCCCCC(C)(C)c1cc(O)c2c(c1)oc(=O)c1ccc(OC)cc12` [Compound 1a], for which, at hCB2 receptor [1], the EC50 came out at 10.5 ± 2.5 nM, the “classification at hCB2” value is listed as “agonist” and the “E(max)” value came to 73%.

In turn, `N#CCCCCCC1(c2cc(O)c3c(c2)oc(=O)c2ccc(O)cc23)CCCC1` [Compound 3f, 3-[1-(5-Cyanopentyl)cyclopentyl]-1,9-dihydroxy-6H-dibenzo[b,d]pyran-6-one] had an EC50 at hCB2 receptor [1] of 3.7 ± 1.5 nM. Further, the entries for the “classification at hCB2” value at hCB2 receptor [1] and at hCB2 receptor [1] (listed as AM4346) were “agonist” and “potent CB2 agonist”, respectively. In addition, the “E(max)” value on hCB2 receptor [1] was 89%. Besides, the inhibitory constant (Ki) was found to be 4.9 ± 1.2 nM at mouse CB2 receptor (read-out: Ki mCB2), 33.8 ± 10.4 nM on hCB2 receptor [2] and 640 ± 152 nM on rat CB1 receptor. Besides, the “greater affinity for mCB2 than for hCB2” value on hCB2 receptor [2] came out at 7 fold.
